Laboratory results taken from patent US4450269A, “Mono-5-substituted-3-chloro-4H-1,2,6-thiadiazin-4-one antifungal agents” (FMC Corporation, priority 1980, dated 1984).
Read-outs that look alike come from different tables or passages of the source.

Tests used:
[1] = system: Phytophthora infestans; format: cell-based; settings: PI, 48 hours
[2] = system: Venturia inaequalis; test: Spore germination test; format: cell-based; settings: VI, 48 hours
Procedure, shortened: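 Compound from acetone stock mixed into water agar at 40, 10, 2.5 and 1 ppm; plated quadrants inoculated with spore suspension in sterile water. Incubation 48 hours at 24° C, then percentage of germinated spores counted and converted to a germination rating.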

[3] = system: Pyricularia oryzae; test: whole plant or invertebrate; format: in vivo; settings: Pyricularia oryzae, foliar, 24 h, read-out: Percent Disease Control, curative, rice blast, 150 ppm, 24 hours after inoculation

Row | SMILES | Spore Germination Rating ([1]; 1.0 ppm) | Spore Germination Rating ([1]; 2.5 ppm) | Spore Germination Rating ([1]; 10 ppm) | Spore Germination Rating ([1]; 40 ppm) | Spore Germination Rating ([2]; 1.0 ppm) | Spore Germination Rating ([2]; 2.5 ppm) | Spore Germination Rating ([2]; 10 ppm) | Spore Germination Rating ([2]; 40 ppm) | pest or weed control at 150 ppm [3] [%]
1 | CNC(=O)Nc1ccc(Oc2nsnc(Cl)c2=O)cc1 [Compound 28, 3-chloro-5-[4-(3-methylureido)-phenoxy]-4H--1,2,6-thiadiazin-4-one] | 4 (80-100) | 4 (80-100) | 4 (80-100) | 2 (40-60) | 4 (80-100) | 4 (80-100) | 2 (40-60) | 3 (60-80) | 0
2 | CC(=O)Nc1cccc(Oc2nsnc(Cl)c2=O)c1 [Compound 42, 3-[(3-N--acetylamino)-phenoxy]-5-chloro-4H--1,2,6-thiadiazin-4-one] | 4 (80-100) | 4 (80-100) | 3 (60-80) | 0 (0-10) | 4 (80-100) | 4 (80-100) | 4 (80-100) | 1 (10-40) | 0
3 | O=c1c(Cl)nsnc1Oc1c(Cl)cccc1Cl [Compound 18, 3-chloro-5-(2,6-dichlorophenoxy)-4H--1,2,6-thiadiazin-4-one] | 3 (60-80) | 0 (0-10) | 0 (0-10) | 0 (0-10) | 1 (10-40) | 0 (0-10) | 0 (0-10) | 0 (0-10) | 0
4 | Cc1cc(Cl)c(Oc2nsnc(Cl)c2=O)cc1C [Compound 58, 3-chloro-5-[(2-chloro-4,5-dimethyl)phenoxy]-4H--1,2,6-thiadiazin-4-one] | 3 (60-80) | 2 (40-60) | 0 (0-10) | 0 (0-10) | 2 (40-60) | 1 (10-40) | 0 (0-10) | 0 (0-10) | 0
5 | O=c1c(Cl)nsnc1Oc1cccc(Cl)c1Cl [Compound 19, 3-chloro-5-(2,3-dichlorophenoxy)-4H--1,2,6-thiadiazin-4-one] | 3 (60-80) | 0 (0-10) | 0 (0-10) | 0 (0-10) | 1 (10-40) | 0 (0-10) | 0 (0-10) | 0 (0-10) | 0
6 | O=c1c(Cl)nsnc1Oc1ccc(Cl)cc1 [Compound 12, 3-chloro-5-(4-chlorophenoxy)-4H--1,2,6-thiadiazin-4-one] | 1 (10-40) | 1 (10-40) | 1 (10-40) | 0 (0-10) | 1 (10-40) | 0 (0-10) | 0 (0-10) | 0 (0-10) | 75
7 | O=C(O)Cc1ccccc1Oc1nsnc(Cl)c1=O [Compound 45, 3-(2-carboxymethylphenoxy)-5-chloro-4H--1,2,6-thiadiazin-4-one] | 4 (80-100) | 4 (80-100) | 0 (0-10) | 0 (0-10) | 4 (80-100) | 4 (80-100) | 4 (80-100) | 0 (0-10) | 0
8 | CCCCOc1ccc(Oc2nsnc(Cl)c2=O)cc1 [Compound 6, 3-chloro-5-(4-n-butoxyphenoxy)-4H--1,2,6-thiadiazin-4-one] | 2 (40-60) | 0 (0-10) | 0 (0-10) | 0 (0-10) | 1 (10-40) | 0 (0-10) | 0 (0-10) | 0 (0-10) | 0
9 | N#Cc1ccc(Oc2nsnc(Cl)c2=O)cc1 [Compound 10, 3-chloro-5-(4-cyanophenoxy)-4H--1,2,6-thiadiazin-4-one] | 0 (0-10) | 0 (0-10) | 0 (0-10) | 1 (10-40) | 0 (0-10) | 0 (0-10) | 0 (0-10) | 0 (0-10) | 0
10 | Cc1cc(Oc2nsnc(Cl)c2=O)ccc1Cl [Compound 54, 3-chloro-5-(4-chloro-3-methylphenoxy)-4H--1,2,6-thiadiazin-4-one] | 1 (10-40) | 0 (0-10) | 0 (0-10) | 0 (0-10) | 1 (10-40) | 0 (0-10) | 0 (0-10) | 0 (0-10) | 0
11 | O=c1c(Cl)nsnc1Oc1ccc(Cl)cc1Cl [Compound 17, 3-chloro-5-(2,4-dichlorophenoxy)-4H--1,2,6-thiadiazin-4-one] | 3 (60-80) | 0 (0-10) | 0 (0-10) | 0 (0-10) | 0 (0-10) | 0 (0-10) | 0 (0-10) | 0 (0-10) | 0
12 | O=c1c(Cl)nsnc1Oc1cc(Cl)cc(Cl)c1 [Compound 20, 3-chloro-5-(3,5-dichlorophenoxy)-4H--1,2,6-thiadiazin-4-one] | 0 (0-10) | 0 (0-10) | 0 (0-10) | 0 (0-10) | 0 (0-10) | 0 (0-10) | 0 (0-10) | 0 (0-10) | 0
